From patent publication US10125134B2 (Mirati Therapeutics, Inc., priority 2016, dated 2018)
Like-named read-outs stand apart in the source and are kept apart here.

Key:
[1] = biological target: KRas G12C (Homo sapiens, UniProt P01116, C118S/C51S/C80L/G12C); test: KRas G12C Modification Assay (LCMS detection of covalent adduct); format: binding; conditions: normalized percent of control; tested at 5 μM concentration for 3 hours
Method in brief: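 Cys-light KRas G12C mutant protein incubated with compound in K-Ras assay buffer, reactions quenched at set time points with 25 mM acetic acid and analysed by intact-protein LC/MS on a C-3 column. Deconvoluted mass heights expressed as percent of control (POC) relative to compound-free protein.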

[2] = test system: NCI-H358 cells (express KRas G12C), Phospho-ERK; test: Cellular inhibition of KRas G12C: Phospho-ERK in NCI-H358 cells; format: cell-based; conditions: pERK(Thr202/Tyr204) normalized with GAPDH, NCI-H358 cells, 3 hours, read-out: IC50
Method in brief: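 IC50 derived by 4-parameter fit of GAPDH-normalized pERK(Thr202/Tyr204) signal, as percent of DMSO control. Signal came from in-cell immunodetection with infrared secondaries after 3 h compound exposure of KRas G12C NCI-H358 cells at 0.5% DMSO.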

Compound	POC [1]	IC50 ([2]; Homo sapiens, NCI-H358, 3 h) [nM]	IC50 ([2]; Homo sapiens) [nM]	IC50 [2] [nM]
C=CC(=O)N1CCN(c2nc(OCC3CN(C)CCO3)nc3c2CCN(c2cc(O)cc4ccccc24)C3)CC1 (stereo not drawn) [Example 193, 1-(4-(7-(3-hydroxynaphthalen-1-yl)-2-((4-methylmorpholin-2-yl)methoxy)-5,6,7,8-tetrahydropyrido[3,4-d]pyrimidin-4-yl)piperazin-1-yl)prop-2-en-1-one]	C (“C”>50% POC)	0.1 to 1000		
C=CC(=O)N1CCN(c2nc(OC[C@H]3CCCN3C)nc3c2CCN(c2ccccc2C(F)(F)F)C3)CC1CC#N (stereo partly drawn) [Example 283, 2-(1-acryloyl-4-(2-(((R)-1-methylpyrrolidin-2-yl)methoxy)-7-(2-(trifluoromethyl)phenyl)-5,6,7,8-tetrahydropyrido[3,4-d]pyrimidin-4-yl)piperazin-2-yl)acetonitrile]	C (“C”>50% POC)	0.1 to 1000		
C=CC(=O)N1CCN(c2nc(OCCN3CCC(C)CC3)nc3c2CCN(c2cc(O)cc4ccccc24)C3)CC1 [Example 92, 1-(4-(7-(3-hydroxynaphthalen-1-yl)-2-(2-(4-methylpiperidin-1-yl)ethoxy)-5,6,7,8-tetrahydropyrido[3,4-d]pyrimidin-4-yl)piperazin-1-yl)prop-2-en-1-one]	C (“C”>50% POC)	0.1 to 1000		
C=CC(=O)N1CCN(c2nc(OC[C@@H]3CC(F)(F)CN3C)nc3c2CCN(c2cccc4cccc(Cl)c24)C3)C[C@@H]1CC#N [Example 366, 2-[(2S)-4-[7-(8-chloro-1-naphthyl)-2-[[(2S)-4,4-difluoro-1-methyl-pyrrolidin-2-yl]methoxy]-6,8-dihydro-5H-pyrido[3,4-d]pyrimidin-4-yl]-1-prop-2-enoyl-piperazin-2-yl]acetonitrile]	C (“C”>50% POC)	0.1 to 1000		
C=CC(=O)N1CCN(c2nc(OCCCN3CCOCC3)nc3c2CCN(c2cc(O)cc4cc(C)[nH]c24)C3)CC1 [Example 167, 1-(4-(7-(5-hydroxy-2-methyl-1H-indol-7-yl)-2-(3-morpholinopropoxy)-5,6,7,8-tetrahydropyrido[3,4-d]pyrimidin-4-yl)piperazin-1-yl)prop-2-en-1-one]	B (“B”>25% POC−≤50% POC)		> 1000	
C=CC(=O)N1CCN(c2nc(OCCNC(C)=O)nc3c2CCN(c2cc(O)cc4ccccc24)C3)CC1 [Example 59, N-(2-((4-(4-acryloylpiperazin-1-yl)-7-(3-hydroxynaphthalen-1-yl)-5,6,7,8-tetrahydropyrido[3,4-d]pyrimidin-2-yl)oxy)ethyl)acetamide]	C (“C”>50% POC)	> 1000		
C=CC(=O)N1CCN(c2nc(OC[C@@H]3CCCN3C)nc3c2CCN(c2ccccc2C(F)(F)F)C3)C[C@@H]1CC#N [Example 379, 2-((S)-1-acryloyl-4-(2-(((S)-1-methylpyrrolidin-2-yl)methoxy)-7-(2-(trifluoromethyl)phenyl)-5,6,7,8-tetrahydropyrido[3,4-d]pyrimidin-4-yl)piperazin-2-yl)acetonitrile]	C (“C”>50% POC)			0.1 to 1000
C=CC(=O)N1CCN(c2nc(OC[C@@H]3[C@@H](O)CCN3C)nc3c2CCN(c2cccc4ccccc24)C3)C[C@@H]1CC#N [Example 390, 2-((S)-1-acryloyl-4-(2-(((2R,3S)-3-hydroxy-1-methylpyrrolidin-2-yl)methoxy)-7-(naphthalen-1-yl)-5,6,7,8-tetrahydropyrido[3,4-d]pyrimidin-4-yl)piperazin-2-yl)acetonitrile]	C (“C”>50% POC)	0.1 to 1000		
C=CC(=O)N1CCN(c2nc(OC[C@@H]3CCCN3C)nc3c2CCN(c2cccc(OC)c2C(F)(F)F)C3)C[C@@H]1CC#N [Example 330, 2-[(2S)-4-[7-[3-methoxy-2-(trifluoromethyl)phenyl]-2-[[(2S)-1-methylpyrrolidin-2-yl]methoxy]-6,8-dihydro-5H-pyrido[3,4-d]pyrimidin-4-yl]-1-prop-2-enoyl-piperazin-2-yl]acetonitrile]	C (“C”>50% POC)	0.1 to 1000		
C=CC(=O)N1CCN(c2nc(OCCN(CC)CC)nc3c2CCN(c2cc(O)cc4ccccc24)C3)CC1 [Example 102]	C (“C”>50% POC)	0.1 to 1000		

Continued, in another order:

POC [1]	Compound	IC50 ([2]; Homo sapiens, NCI-H358, 3 h) [nM]	IC50 ([2]; Homo sapiens) [nM]	IC50 [2] [nM]
C (“C”>50% POC)	C=CC(=O)N1CCN(c2nc(OC[C@@H]3CCCN3CCOC)nc3c2CCN(c2cc(O)cc4ccccc24)C3)CC1 [Example 144, (5)-1-(4-(7-(3-hydroxynaphthalen-1-yl)-2-((1-(2-methoxyethyl)pyrrolidin-2-yl)methoxy)-5,6,7,8-tetrahydropyrido[3,4-d]pyrimidin-4-yl)piperazin-1-yl)prop-2-en-1-one]	0.1 to 1000		
C (“C”>50% POC)	C=CC(=O)N1CCN(c2nc(OCCN3CCCC[C@@H]3C)nc3c2CCN(c2cc(O)cc4ccccc24)C3)CC1 [Example 88, (S)-1-(4-(7-(3-hydroxynaphthalen-1-yl)-2-(2-(2-methylpiperidin-1-yl)ethoxy)-5,6,7,8-tetrahydropyrido[3,4-d]pyrimidin-4-yl)piperazin-1-yl)prop-2-en-1-one]	0.1 to 1000		
C (“C”>50% POC)	C=CC(=O)N1CCN(c2nc(OCCCN3CCCCC3)nc3c2CCN(c2cc(O)cc4ccccc24)C3)CC1 [Example 38, 1-(4-(7-(3-hydroxynaphthalen-1-yl)-2-(3-(piperidin-1-yl)propoxy)-5,6,7,8-tetrahydropyrido[3,4-d]pyrimidin-4-yl)piperazin-1-yl)prop-2-en-1-one]	0.1 to 1000		
C (“C”>50% POC)	C=CC(=O)N1CCN(c2nc(OC[C@@H]3CCCN3C)nc3c2CCN(c2cccc4ccccc24)C3)C(C)(C)C1 [Example 354, 1-[3,3-dimethyl-4-[2-[[(2S)-1-methylpyrrolidin-2-yl]methoxy]-7-(1-naphthyl)-6,8-dihydro-5H-pyrido[3,4-d]pyrimidin-4-yl]piperazin-1-yl]prop-2-en-1-one]	> 1000		
C (“C”>50% POC)	C=CC(=O)N1CCN(c2nc(OC3CCN(C4CC4)CC3)nc3c2CCN(c2cc(O)cc4ccccc24)C3)CC1 [Example 100, 1-(4-(2-((1-cyclopropylpiperidin-4-yl)oxy)-7-(3-hydroxynaphthalen-1-yl)-5,6,7,8-tetrahydropyrido[3,4-d]pyrimidin-4-yl)piperazin-1-yl)prop-2-en-1-one]	> 1000		
C (“C”>50% POC)	C=CC(=O)N1CCN(c2nc(OCCN3CCCCC3)nc3c2CCN(c2cccc4ccccc24)C3)C[C@@H]1CC#N [Example 408, (S)-2-(1-acryloyl-4-(7-(naphthalen-1-yl)-2-(2-(piperidin-1-yl)ethoxy)-5,6,7,8-tetrahydropyrido[3,4-d]pyrimidin-4-yl)piperazin-2-yl)acetonitrile]	0.1 to 1000		
C (“C”>50% POC)	C=CC(=O)N1CCN(c2nc(OC[C@H]3CCC(=O)N3)nc3c2CCN(c2cc(O)cc4ccccc24)C3)CC1 [Example 58, (R)-5-(((4-(4-acryloylpiperazin-1-yl)-7-(3-hydroxynaphthalen-1-yl)-5,6,7,8-tetrahydropyrido[3,4-d]pyrimidin-2-yl)oxy)methyl)pyrrolidin-2-one]	> 1000		
C (“C”>50% POC)	C#CC[C@H]1CN(c2nc(OC[C@@H]3CCCN3C)nc3c2CCN(c2cccc4ccccc24)C3)CCN1C(=O)C=C [Example 358, 1-[(2S)-4-[2-[[(2S)-1-methylpyrrolidin-2-yl]methoxy]-7-(1-naphthyl)-6,8-dihydro-5H-pyrido[3,4-d]pyrimidin-4-yl]-2-prop-2-ynyl-piperazin-1-yl]prop-2-en-1-one]	0.1 to 1000		
